In patent US20220218712A1, “TREATMENT OF ALZHEIMER'S DISEASE” (Saint Louis University, priority 2019, published 2022):

Columns and labels:
[1] = tested on: SAMP8 mice; test: T-maze shock avoidance, acquisition and one-week retention; assay type: in vivo, mouse; settings: 12 month-old SAMP8 mice, 1 mg/kg IP every 48 hours for 5 weeks
Protocol: FIG. 1 depicts the effects of a selective A3AR agonist, MRS5980, on learning and memory in 12 month-old SAMP8 mice. The selective A3AR agonist, MRS5980 (1 mg/kg, IP) or vehicle (saline) was given every 48 hours for 5 weeks starting at 12 months of age. Behavioral testing began after 3 weeks of treatment. NORPT—the Novel Object Recognition Protocol Test is a memory task that involves the hippocampus when, as performed herein, the retention interval is 24 hours after initial exposure to the two like objects. Mice received three 5 minutes habituation trials in an empty apparatus separated by 2 hours, the day prior to entry of the objects. During the training session, the mouse was exposed to two similar objects (plastic frogs) which it was allowed to examine for 5 minutes. The apparatus and the objects were cleaned between each trial to remove odor cures. Twenty-four hours later, the mouse was exposed to one of the original objects and a new novel object (plastic bird) and the time spent examining the objects was recorded. The results are expressed as Discrimination index=(Total new−Total old)/Total new+Total old)]. The novel object was made out of the same material as the original object and of the same size, but a different shape. The underlying concept of the NORPT is based on the tendency of mice to spend more time exploring new objects than familiar ones. Thus, the greater the retention/memory at 24 hours, the more time spent with the new object the higher the discrimination. […] Number of attempts before first successful avoidance of the shock in T-maze and retention (memory) for the T-maze one-week later was also determined. Retention was defined as number of trial to successfully avoid the shock 5 out of 6 consecutive trials. […] ANOVA followed by pairwise Tukey's post hoc test. Means±SEM; n=6-8/group; **p<0.01.

[2] = tested on: SAMP8 mice; test: Novel Object Recognition Protocol Test (NORPT); assay type: in vivo, mouse; settings: 12 month-old SAMP8 mice, 1 mg/kg IP every 48 hours for 5 weeks
Protocol: FIG. 1 depicts the effects of a selective A3AR agonist, MRS5980, on learning and memory in 12 month-old SAMP8 mice. The selective A3AR agonist, MRS5980 (1 mg/kg, IP) or vehicle (saline) was given every 48 hours for 5 weeks starting at 12 months of age. Behavioral testing began after 3 weeks of treatment. NORPT—the Novel Object Recognition Protocol Test is a memory task that involves the hippocampus when, as performed herein, the retention interval is 24 hours after initial exposure to the two like objects. Mice received three 5 minutes habituation trials in an empty apparatus separated by 2 hours, the day prior to entry of the objects. During the training session, the mouse was exposed to two similar objects (plastic frogs) which it was allowed to examine for 5 minutes. The apparatus and the objects were cleaned between each trial to remove odor cures. Twenty-four hours later, the mouse was exposed to one of the original objects and a new novel object (plastic bird) and the time spent examining the objects was recorded. The results are expressed as Discrimination index=(Total new−Total old)/Total new+Total old)]. The novel object was made out of the same material as the original object and of the same size, but a different shape. […] Number of attempts before first successful avoidance of the shock in T-maze and retention (memory) for the T-maze one-week later was also determined. […]

[3] = vs old vehicle treated controls

CNC(=O)[C@@]12C[C@@H]1[C@@H](n1cnc3c(NC)nc(C#Cc4ccc(Cl)s4)nc31)[C@H](O)[C@@H]2O [MRS5980]
T-maze learning and retention ([1]; old treated mice vs young vehicle treated controls): no difference between the young vehicle treated controls and the old A3AR treated mice
Number of attempts before first successful avoidance of the shock in T-maze (learning) [1, 3]: learned and remembered the T-maze better than the old vehicle treated controls
Retention (memory) for the T-maze one-week later, trials to avoid the shock 5 out of 6 consecutive trials [1, 3]: remembered the T-maze better than the old vehicle treated controls
Discrimination index (memory at 24 hours) in NORPT ([2]; old treated mice vs young mice): no difference between the young mice and the old A3 AR treated mice
Discrimination index (memory at 24 hours) in NORPT ([2]; retention interval 24 hours, vs vehicle treated controls, **p<0.01): significantly better memory than vehicle treated controls
